Laboratory results: PMC7157241, “Phenotypic Drug Discovery for Human African Trypanosomiasis: A Powerful Approach” (Tropical Medicine and Infectious Disease, 2020)
Where two headings read alike, the source gives them in different places. Marks after values point to notes of the source that are not given here. Each block holds one molecule with its values, some of them ahead of it.

Tests used:
[1] = Mammalian cell cytotoxicity assay (AlamarBlue, 48 h); format: cell-based; conditions: human
Protocol: Compounds were tested for cytotoxicity against CRL-8155 cells (human lymphoblasts). Cells were grown in culture with serial dilutions of compounds for 48 h and cytotoxicity was assayed using AlamarBlue (Life Technologies, Carlsbad, California CA, USA).

[2] = Brain permeability studies in mice (brain to plasma ratio); format: in vivo, mouse; conditions: for Kp at 1 h / Kp at 60 min: 5 mg/kg, mouse; for Kp at 60 min: read-out: B/P Ratio (Mouse)
Protocol: Test compounds were injected (ip) at 5 mg/kg to three mice in a vehicle consisting of DMSO (5%), Tween 80 (7%), and EtOH (3%) in physiological saline (0.9%) solution [8]. At 1 h post injection, blood was collected, and plasma was separated by centrifugation. Simultaneously, the brain was removed and homogenized in acetonitrile. Concentrations of compound in the plasma and brain were determined via liquid chromatography/tandem mass spectrometry. Calculations of brain levels accounted for 3% volume/weight of blood in the brain.
The long-term goal of the project was to develop a drug for treatment of HAT including late-stage disease involving the central nervous system. […] To assess this, the sixteen hit compounds were injected […] and mice were sacrificed at 60 min (n = 3 mice) for the simultaneous collection of plasma and whole brains for the quantification of compound concentrations. Eleven compounds (1–10, 12) had brain levels of at least 25% of plasma levels and were considered candidates for development. One compound (11) had modest brain permeability of 9%, but was included for further chemistry despite this marginal activity. Four compounds (13–15, 17) had minimal concentrations in the brain (< 2% of plasma levels) and were no longer pursued.

[3] = tested on: T. b. brucei (strain TREU667); experiment: Anti-parasite efficacy in mice (chronic model); format: in vivo, mouse; conditions: chronic infection model (unpublished)
Protocol: Groups of six to eight mice were infected with 1 × 10^4 T. b. brucei (strain TREU667) to establish a chronic infection. Treatment began on day 21 post-infection, and mice received 50 mg/kg test compound orally twice per day for 10 days (total of 20 doses) in a 200 μL volume of vehicle. A control group received the vehicle with no compound and another control group received a single intraperitoneal dose of diminazene aceturate at 10 mg/kg on day 21. […] After dosing, parasitemia was monitored via microscopic examination of tail blood slides until 180 days post-infection. Mice were removed from the experiment when parasites were detected in the blood.

[4] = tested on: T. brucei rhodesiense STIB 900 strain; conditions: acute infection model; cited from earlier work
[5] = Mouse liver microsome stability; conditions: for half-life: mouse, liver microsomes
[6] = tested on: T. brucei brucei (strain BF427); experiment: In vitro parasite growth arrest assay (AlamarBlue); format: cell-based, Trypanosoma brucei brucei
Protocol: Follow up compounds were tested for antiparasitic activity on T. brucei brucei (strain BF427). Parasites were tested in triplicate in the presence of serial dilutions of compound, and growth was quantified with AlamarBlue.

[7] = Single dose oral pharmacokinetic study in mice; format: in vivo; conditions: mouse, oral gavage 50 mg/kg
Protocol: Test compounds were administered to mice by oral gavage followed by blood sampling at intervals of 30, 60, 120, 240, 360, 480, and 1440 min [5, 7]. Compounds were dosed orally at 50 mg/kg in 0.2 mL of dosing solution (7% Tween 80, 3% ethanol, 5% DMSO, 0.9% saline). Experiments were performed with groups of three mice per compound as published. Plasma was separated and extracted with acetonitrile for measurements of the compound concentrations by liquid chromatography/tandem mass spectrometry.
New compounds had T. brucei EC50, mammalian host cell cytotoxicity (CC50), and aqueous solubility assayed per our screening cascade (Figure 2). The cut-off values for further advancement are shown. […] The screening results were continuously reviewed by the chemistry group to define structure activity relationships (SAR). […] Mice were administered compounds by oral gavage at 50 mg/kg and whole blood samples were collected on blotting cards at serial time points. The parameters of maximum blood concentration (Cmax) and the concentration of compound integrated over time (area under curve, AUC) were of primary interest. The general rule was to attain plasma concentrations 10 times above the T. brucei EC50 value for at least eight hours. […]

[8] = Human microsome stability; format: in vitro ADME; conditions: microsomes, Figure 3, read-out: Human microsome t½
[9] = microsomes
[10] = Brain permeability studies in mice (brain to plasma ratio); format: in vivo; conditions: mouse, 5 mg/kg
[11] = set-up: method as in PMID 28835807; conditions: data are for close analog of Scaffold 9 parent (parent had poor ionization in MS); 60 min following IP dose; cited from earlier work
[12] = tested on: T. b. brucei (strain TREU667); set-up: method as in PMID 27992217; conditions: cited from earlier work
[13] = Trypanosoma brucei, Figures 4 and 5, read-out: T. brucei EC50
[14] = brain and plasma, intraperitoneal, Figure 3, read-out: Brain:Plasma
[15] = Trypanosoma brucei, Figure 3, Scaffold 1 optimization, read-out: T. brucei EC50
[16] = CRL-8155 cells (lymphoblasts), Figure 3, Scaffold 1 optimization, read-out: CC50
[17] = lymphocytic cell line CRL-8155, read-out: Mammalian CC50
[18] = in vivo, brain to plasma ratio at 60 min following IP dose
[19] = Trypanosoma brucei, selected hit compounds, Table 1, read-out: T. brucei EC50
[20] = in vivo, Figures 4 and 5, read-out: Brain:Plasma ratio
[21] = CRL-8155 cells (lymphoblasts), lymphocytic cell line CRL-8155, read-out: Mammalian CC50
[22] = brain and plasma, brain to plasma ratio at 60 min following IP dose

Kp at 1 h ([2]; brain and plasma, intraperitoneal, Figures 4 and 5, read-out: Brain:Plasma ratio): 1.68 | Mouse liver microsome t½ ([5]; Figures 4 and 5): 11 min | EC50 [6, 13]: 1.9 nM
SMILES: COc1cc(N2C(=O)CN(Cc3ccc(F)cc3Cl)C2=S)ccc1N(C)C [BA-738]
CC50 at 48 h ([1]; CRL-8155 cells (lymphoblasts), Figure 5, read-out: Mammalian cell CC50): > 50 µM | cures in the chronic infection model [3]: 20 % of mice | outcome in acute T. brucei infection in mice [4]: cured mice

Kp at 1 h [2, 14]: 0.04 | AUC [7]: 1236 µmol·min | EC50 [6, 15]: 4 nM
SMILES: O=C(Nc1ccc(F)c(-c2nc3cc(-c4ccccc4)cnc3[nH]2)c1)N1CCCC1 [HB-175]

Kp at 1 h [2, 14]: 0.23 | AUC [7]: 55901 µmol·min | half-life [8]: > 90 min | half-life [5]: > 90 min
SMILES: Cc1nc(C)c(C(=O)Nc2ccc(F)c(-c3nc4ncc(-c5ccccc5Cl)cn4n3)c2)o1 [PN-302]
CC50 at 48 h [1, 16]: > 50 µM

EC50 ([6]; positive control included in each assay, read-out: EC50 of positive control): 1.2 ± 0.3 nM
SMILES: N=C(N)c1ccc(OCCCCCOc2ccc(C(=N)N)cc2)cc1 [Pentamidine isothionate, reference compound]

SMILES: O=C(Nc1ccc(Cl)c(-c2nc3ncccc3o2)c1)c1ccco1 [Scaffold 1]
CC50 at 48 h ([1]; Figure 3, Scaffold 1 optimization, read-out: CC50): 50 µM | CC50 at 48 h [1, 17]: > 50 µM | Kp at 60 min [2, 18]: 0.547 | Mouse microsome t½ [9]: 0.8 min | EC50 [6, 15]: 220 nM | EC50 [6, 19]: 218 nM

SMILES: O=C(NCCc1nc(-c2ccccc2)cs1)c1ccccc1 [Scaffold 2]
CC50 at 48 h [1, 17]: > 50 µM | Kp at 1 h [2, 20]: 0.3 | Kp at 60 min [2, 18]: 0.3

Kp at 60 min [2, 22]: 2.86 | EC50 [6, 19]: 874 nM
SMILES: O=c1c2ccccc2nc(SCc2cccnc2)n1Cc1ccco1 [Scaffold 3]
CC50 at 48 h [1, 21]: 38 µM

Kp at 60 min [2, 22]: 0.727 | EC50 [6, 19]: 307 nM
SMILES: Cc1nn2c(NCCCO)c3c(nc2c1-c1cccs1)CCC3 [Scaffold 6]
CC50 at 48 h [1, 21]: > 100 µM

Kp at 60 min [2, 22]: 0.587 | EC50 [6, 19]: 657 nM
SMILES: COc1ccc(-n2nc(C(=O)NCC(=O)N3CCCC(C)C3)c3ccccc3c2=O)cc1Cl (stereo not shown) [Scaffold 7]
CC50 at 48 h [1, 21]: > 50 µM

SMILES: Fc1ccccc1C1C=C(c2cccnc2)Nc2nnnn21 (stereo not shown) [Scaffold 8]
CC50 at 48 h [1]: 14.3 µM | Kp at 15 min ([10]; in vivo, brain to plasma ratio at 15 min following IP dose (Scaffold 8), read-out: B/P Ratio (Mouse)): 7.11 | EC50 [6, 19]: 214 nM

EC50 [6, 19]: 346 nM
SMILES: COc1ccc(N2C(=O)CN(Cc3ccccc3)C2=S)cc1Cl [Scaffold 9]
CC50 at 48 h [1, 21]: > 50 µM | B/P Ratio (Mouse) [11]: 0.743 ***

Kp at 60 min [2, 22]: 0.224 | EC50 [6, 19]: 2440 nM
SMILES: CCn1cc(CN2CCCC(C(=O)Nc3ccc(-c4nc5ccccc5[nH]4)cc3)C2)cn1 (stereo not shown) [Scaffold 10]

Kp at 60 min [2, 22]: 0.09 | Kp at 60 min ([10]; brain and plasma, intraperitoneal, mice sacrificed at 60 min, n = 3, read-out: brain levels as percent of plasma levels): 0.09 | EC50 [6, 19]: 3090 nM
SMILES: O=c1nc(/C=C/c2cn(Cc3ccccc3F)c3ccccc23)cc(C(F)(F)F)[nH]1 [Scaffold 11]

Kp at 60 min [2, 22]: 0.267 | EC50 [6, 19]: 1700 nM
SMILES: COc1ccc(CNC(=O)CN(c2cccc(C)c2C)S(=O)(=O)c2ccccc2)cc1 [Scaffold 12]
CC50 at 48 h [1, 21]: > 100 µM

Kp at 60 min [2, 22]: 0.02 | EC50 [6, 19]: 1000 nM
SMILES: Cc1cc(C)c(NC(=O)c2cc(S(=O)(=O)N3CCOCC3)cn2C)c(C)c1 [Scaffold 13]
CC50 at 48 h [1, 21]: > 100 µM

Kp at 60 min [2, 22]: 0.01 | EC50 [6, 19]: 708 nM
SMILES: COCCN1C(=O)c2ccccc2C(C(=O)Nc2ccc(Oc3ccccc3)cc2)C1c1ccc(F)cc1 (stereo not shown) [Scaffold 14]
CC50 at 48 h [1, 21]: > 100 µM

Kp at 60 min [2, 22]: 0 | EC50 [6, 19]: 1500 nM
SMILES: COc1cccc(C2N(c3ccccc3)N=C(C(C)=O)N2c2ccc(C)c(C)c2)c1OCc1ccccc1 (stereo not shown) [Scaffold 15]
CC50 at 48 h [1, 21]: 33 µM

B/P Ratio (Mouse) ([2]; brain to plasma ratio at 60 min following IP dose): No plasma exposure | EC50 [6, 19]: 650 nM
SMILES: O=C(CSc1nc2scc(-c3ccccc3)c2c(=O)n1-c1ccccc1)Nc1ccccc1F [Scaffold 16]
CC50 at 48 h [1, 21]: > 100 µM | plasma and brain levels ([2]; 60-min time point): nearly undetectable plasma and brain levels

Kp at 60 min [2, 22]: 0 | EC50 [6, 19]: 3500 nM
SMILES: COc1ccc(-c2c(C#N)c(SCc3ccccc3)nc(C)c2C(=O)Nc2ccccc2)cc1 [Scaffold 17]
CC50 at 48 h [1, 21]: > 100 µM

SMILES: O=C(Nc1ccc2sc(-c3ccc(F)c(F)c3)nc2c1)N1CC[C@H](F)C1 [Scaffold 45DAP076]
Kp at 1 h [2, 20]: 4 | activity in the chronic T. brucei infection model [12]: curative activity | half-life [5]: > 60 min | EC50 [6, 13]: 35 nM

half-life [5]: 0.7 min | EC50 [6, 15]: 80 nM
SMILES: O=C(Nc1ccc(F)c(-c2nc3ncccc3o2)c1)c1ccco1 [Site I: F]
CC50 at 48 h [1, 16]: 99.7 µM

half-life [5]: 0.8 min | EC50 [6, 15]: 80 nM
SMILES: O=C(Nc1ccc(Cl)c(-c2nc3ncccc3o2)c1)N1CCCC1 [Site II: pyrrolidine]
CC50 at 48 h [1, 16]: 73 µM

half-life [5]: 0.8 min | EC50 [6, 15]: 50 nM
SMILES: O=C(Nc1ccc(Cl)c(-c2nc3cc(Br)cnc3[nH]2)c1)c1ccco1 [Site III: as shown]
CC50 at 48 h [1, 16]: 200 µM

half-life [5]: 0.7 min | EC50 [6, 15]: 100 nM
SMILES: O=C(c1ccco1)N(C(=O)c1ccco1)c1ccc(Cl)c(-c2nc3ncccc3o2)c1 [Site V: as shown]
CC50 at 48 h [1, 16]: 86 µM
